# Literature values as cited in patent publication US8974824B2, “Lanthanum composition” (Mylan Laboratories Ltd., priority 2008, dated 2015).
# Conditions: pH range of 3 to 5 in gastric fluid; Lanthanum in two-fold molar excess to phosphate
smiles,measurement,value
[La] [Lanthanum],available phosphate bound,approximately 97%
